Test results as given in ChEMBL document CHEMBL1201862, “PubChem BioAssay data set” (2004).
Values joined by “and” are separate entries in the source; they are usually repeats but may differ in a detail not shown here. Equal entries are not always repeated. Active and inactive are the calls of the source.

What was measured:
[1] = tested on: Vero; assay: Vero cell viability after compound exposure – synthesized analogs, set II, cytotoxicity control for West Nile virus antiviral project, SAR follow-up (AID 2402); type: functional; details: Chlorocebus sabaeus
[2] = lung carcinoma cell viability loss – CellTiter-Glo luminescence, dry powder, set 17, dose response (AID 1117284); type: functional, cell-based; details: A549
[3] = activation of miR-122 Renilla sensor silencing – cell-based, Huh7 psiCHECK-miR122, Renilla luciferase, cherry-picked, dose response (AID 651956); type: functional;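 further: huh7 hepatoma cells stably carrying a psiCHECK-2 miR-122 sensor plasmid; renilla luciferase signal reporting endogenous miR-122 activity after 48 h compound exposure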
[4] = OVCAR8 cell viability loss – plate reader, dry powder samples, PAX8 project, dose response (AID 743197); type: functional, cell-based; details: OVCAR-8
[5] = general mammalian cell viability loss – inhibitor set, cherry-pick, set 2, cytotoxicity control for miR-122 modulator project, dose response (AID 720697); type: functional, cell-based
[6] = viability loss in A549 lung cells – cell-based, 24 h, CellTiter-Glo luminescence, cherry-picks, cytotoxicity control, dose response (AID 1053115); type: functional; details: A549, 24 h
[7] = general mammalian cell viability loss – activator set, cherry-pick, cytotoxicity control for miR-122 modulator project, dose response (AID 720690); type: functional, cell-based;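 further: HEK293T human cells scored for general mammalian cytotoxicity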
[8] = molecular target: Paired box protein Pax-8 (Homo sapiens, UniProt Q06710); assay: PAX8 transcriptional activity inhibition in RMG-I – RMG-I cells, luciferase, cherry-pick, dose response (AID 687027); type: functional, cell-based;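 further: luciferase reporter driven by Pax8 target thyroperoxidase promoter measured by SteadyGlo luminescence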
[9] = viability loss in human Jurkat cells – cell-based, luminescence, cytotoxicity control for P. falciparum gametocyte viability project, dose response (AID 1117277); type: functional;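 further: potency reflects loss of cellular ATP meaning fewer viable cells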
[10] = viability inhibitors of stage V gametocytes – luminescence, dose response (AID 1117278); type: functional, cell-based;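 further: gametocytes exposed to compound for 24 hours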
[11] = molecular target: Protein Tat (Human immunodeficiency virus type 1 group M subtype B (isolate HXB2)(HIV-1), UniProt P04608); type: functional;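 further: tat binding to TAR RNA read out by fluorescence polarization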
[12] = viability loss in Vero cells – cytotoxicity control for Vif-APOBEC3G degradation inhibitor project, dose response (AID 1117358); type: functional; details: Vero
[13] = viability of uninfected HEp-2 cells – cell-based, HTS, cytotoxicity control for RSV inhibitor project, dose response (AID 2410); type: functional; details: human respiratory syncytial virus
[14] = Dd2 malaria parasite growth inhibition potency – SYBR Green, dry powder samples, dose response (AID 1159566); type: functional, cell-based;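 further: potency for growth inhibition with lower SYBR green DNA signal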
[15] = growth inhibition of yeast DHODH-expressing 3D7 parasites – SYBR Green, dry powder samples, dose response (AID 1159570); type: functional, cell-based;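 further: parasite growth measured after 72 hours of compound exposure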
[16] = toxicity to human HepG2 hepatoma cells – cell-based, plate reader, dry powder samples, cytotoxicity control, dose response (AID 1159569); type: functional;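 further: inhibitor potency with signal falling toward the positive control level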
[17] = Plasmodium falciparum Dd2 Sybr green parasite growth Measured in Cell-Based and Microorganism Combination System Using Plate Reader - 2153-01_Inhibitor_Dose_DryPowder_Activity_Set3.; type: functional
[18] = P. falciparum Dd2 growth inhibitors, dose response, SYBR Green, cherry-picked samples (AID 1159567); type: functional, cell-based
[19] = Dd2 parasite growth inhibition in erythrocytes – SYBR Green, dry powder samples, set 9, dose response (AID 1159568); type: functional, cell-based
[20] = growth inhibition of PfATP4-mutant resistant parasites – NITD609-resistant line, SYBR Green, dry powder, dose response (AID 1159571); type: functional, cell-based;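 further: parasites synchronized at ring stage by sorbitol before testing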
[21] = molecular target: 14-3-3 protein gamma (Homo sapiens, UniProt P61981); assay: modulators of 14-3-3 gamma client binding – dose response (AID 711); type: functional
[22] = molecular target: Sphingosine 1-phosphate receptor 2 (Homo sapiens, UniProt O95136); assay: Dose Response Cell Based Assay for Agonists of the S1P2 Receptor. [Related pubchem assays: 729, 736, 843 ]; type: functional
[23] = molecular target: Induced myeloid leukemia cell differentiation protein Mcl-1 (Homo sapiens, UniProt Q07820); assay: Mcl-1 Noxa peptide disruption concentration-response – biochemical, TR-FRET, dose response (AID 1417); type: functional
[24] = molecular target: T1, Mannose-6-phosphate isomerase (Homo sapiens, UniProt P34949); assay: MPI enzyme activity inhibition – biochemical, fluorescence intensity, coupled assay, primary screen (AID 1209)
T1 sequence (P34949 whole entry): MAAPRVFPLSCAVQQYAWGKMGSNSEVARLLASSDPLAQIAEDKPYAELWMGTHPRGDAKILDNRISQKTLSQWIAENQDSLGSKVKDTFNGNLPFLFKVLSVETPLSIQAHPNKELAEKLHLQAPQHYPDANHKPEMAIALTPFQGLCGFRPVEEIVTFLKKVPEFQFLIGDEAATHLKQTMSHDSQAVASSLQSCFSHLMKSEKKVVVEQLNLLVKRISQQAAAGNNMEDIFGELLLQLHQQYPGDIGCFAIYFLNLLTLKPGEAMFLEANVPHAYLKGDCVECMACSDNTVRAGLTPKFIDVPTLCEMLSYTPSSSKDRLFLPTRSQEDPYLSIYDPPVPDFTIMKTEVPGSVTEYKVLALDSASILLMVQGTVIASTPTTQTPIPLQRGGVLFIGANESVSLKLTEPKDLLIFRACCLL

[25] = molecular target: Genome polyprotein (dengue virus type 2, UniProt P29990); assay: flavivirus cap methylation enzyme inhibition – biochemical, confirmation dose response, primary screen (AID 588689); type: functional
[26] = molecular target: T1, Mannose-6-phosphate isomerase; assay: MPI inhibition at elevated mannose 6-phosphate – biochemical, fluorescence intensity, high mannose 6-phosphate, primary screen (AID 1220)
[27] = NIH3T3 cell viability loss – ATP luminescence, mouse fibroblasts, counter-screen, dose response (AID 2010); type: functional, cell-based;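 further: cells exposed to compound for about 90 hours before reading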
[28] = tested on: Vero; assay: viability of Vero cells under compound – cytotoxicity control for flavivirus capping enzyme inhibitors (AID 588742); type: functional; details: Chlorocebus sabaeus
[29] = Trypanosoma cruzi growth suppression in host cells – NIH3T3 host cells, beta-gal luminescence, confirmation (AID 2044); type: functional, cell-based;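 further: intracellular parasites grown in NIH/3T3 mouse fibroblasts as host cells; luminescent beta-galactosidase reporter signal from transgenic T. cruzi replicating inside host cells; inhibitors lower the luminescence signal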
[30] = viability loss in HeLa cells – cytotoxicity control for MgcRacGAP inhibitor project, dose response (AID 624300); type: functional
[31] = molecular target: T2, Cytochrome P450 1A2 (Homo sapiens, UniProt P05177);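 further: PubChem cytochrome P450 panel assay, CYP1A2 panel member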
T2 sequence (P05177 whole entry): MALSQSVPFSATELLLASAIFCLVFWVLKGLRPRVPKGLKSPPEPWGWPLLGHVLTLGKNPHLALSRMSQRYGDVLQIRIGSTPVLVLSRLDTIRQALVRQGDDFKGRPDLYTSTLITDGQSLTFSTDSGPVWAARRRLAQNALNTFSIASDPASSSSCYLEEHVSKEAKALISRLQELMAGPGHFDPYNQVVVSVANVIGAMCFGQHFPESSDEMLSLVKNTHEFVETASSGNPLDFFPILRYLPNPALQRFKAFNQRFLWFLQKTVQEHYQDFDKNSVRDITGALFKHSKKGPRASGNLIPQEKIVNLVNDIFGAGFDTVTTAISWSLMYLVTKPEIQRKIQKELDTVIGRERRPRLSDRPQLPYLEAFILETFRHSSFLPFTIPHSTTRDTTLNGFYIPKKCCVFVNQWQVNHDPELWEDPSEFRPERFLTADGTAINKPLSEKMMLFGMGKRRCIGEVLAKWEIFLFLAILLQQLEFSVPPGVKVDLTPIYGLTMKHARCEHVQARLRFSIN

[32] = rise of 2N DNA cells, HeLa – IC50, dose response (AID 1117349); type: functional, cell-based
[33] = glucagon-like peptide-1 release potency in STC-1, concentration-response, half-maximal inhibitory concentration in the STC-1 line (AID 1117345); type: functional, cell-based
[34] = Potency on glucagon-like peptide 1 release, dose-response in NCI-H716 cell line, half maximal inhibitory concentration (AID 1117344); type: functional, cell-based
[35] = Reduced DLD-1 viability, concentration-response, CellTiter-Glo luminescence (AID 1117352); type: functional
[36] = rise of 4N DNA cells, HeLa – IC50, dose response (AID 1117351); type: functional, cell-based
[37] = SNU-C1 cell viability reduction, dose response, CellTiter-Glo luminescence (AID 1117323); type: functional, cell-based
[38] = molecular target: Cytochrome P450 2C9 (Homo sapiens, UniProt P11712)
[39] = cytotoxicity toward HT-29 cells – cell-based, CellTiter-Glo luminescence, IC50, dose response (AID 1117330); type: functional
[40] = cytotoxicity toward Colo320 cells – cell-based, CellTiter-Glo luminescence, IC50, dose response (AID 1117334); type: functional; details: COLO 320
[41] = cytotoxicity toward HCT116 cells – cell-based, CellTiter-Glo luminescence, IC50, dose response (AID 1117332); type: functional; details: HCT-116
[42] = molecular target: Eukaryotic translation initiation factor 4E (Mus musculus, UniProt P63073); assay: blockers of eIF4G binding by eIF4E – biochemical, TR-FRET, dose response (AID 855); type: functional;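 further: potency for disrupting eIF4E binding to eIF4GI seen as loss of FRET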
[43] = RKO cell viability reduction, dose response, CellTiter-Glo luminescence (AID 1117322); type: functional
[44] = CellTiter-Glo luminescence survival assay, SW480 colon tumor line, concentration-response curve, half-maximal inhibitory concentration (AID 1117338); type: functional

Induced myeloid leukemia cell differentiation protein Mcl-1, sequence (Q07820 whole entry): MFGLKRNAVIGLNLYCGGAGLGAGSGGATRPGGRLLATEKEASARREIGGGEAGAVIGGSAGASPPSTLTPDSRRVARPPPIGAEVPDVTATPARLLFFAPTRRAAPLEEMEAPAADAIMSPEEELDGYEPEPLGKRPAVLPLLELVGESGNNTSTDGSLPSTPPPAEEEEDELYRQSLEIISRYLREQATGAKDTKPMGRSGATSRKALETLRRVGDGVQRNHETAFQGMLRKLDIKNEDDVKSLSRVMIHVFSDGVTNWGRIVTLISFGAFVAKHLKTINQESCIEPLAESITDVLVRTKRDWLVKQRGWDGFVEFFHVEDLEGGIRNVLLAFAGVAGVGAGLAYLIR
Cytochrome P450 2C9, sequence (P11712 whole entry): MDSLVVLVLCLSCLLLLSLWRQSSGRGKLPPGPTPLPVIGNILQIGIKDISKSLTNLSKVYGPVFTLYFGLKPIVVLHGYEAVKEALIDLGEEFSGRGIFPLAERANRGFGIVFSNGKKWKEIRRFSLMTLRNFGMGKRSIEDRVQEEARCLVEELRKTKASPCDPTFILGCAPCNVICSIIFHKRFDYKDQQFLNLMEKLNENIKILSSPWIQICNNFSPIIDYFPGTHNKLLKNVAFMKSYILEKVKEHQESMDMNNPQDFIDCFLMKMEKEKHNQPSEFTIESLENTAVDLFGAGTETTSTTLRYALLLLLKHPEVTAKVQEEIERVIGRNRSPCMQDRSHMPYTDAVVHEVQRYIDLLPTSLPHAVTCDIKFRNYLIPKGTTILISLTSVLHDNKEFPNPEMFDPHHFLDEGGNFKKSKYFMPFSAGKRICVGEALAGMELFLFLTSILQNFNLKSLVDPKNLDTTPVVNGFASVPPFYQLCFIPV
Eukaryotic translation initiation factor 4E, sequence (P63073 whole entry): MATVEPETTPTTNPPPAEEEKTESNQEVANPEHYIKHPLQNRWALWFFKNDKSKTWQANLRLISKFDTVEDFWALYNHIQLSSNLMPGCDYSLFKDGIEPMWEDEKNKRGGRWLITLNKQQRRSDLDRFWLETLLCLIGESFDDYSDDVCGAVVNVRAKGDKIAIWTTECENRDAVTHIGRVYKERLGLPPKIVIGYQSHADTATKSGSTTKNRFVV
Paired box protein Pax-8, sequence (Q06710 whole entry): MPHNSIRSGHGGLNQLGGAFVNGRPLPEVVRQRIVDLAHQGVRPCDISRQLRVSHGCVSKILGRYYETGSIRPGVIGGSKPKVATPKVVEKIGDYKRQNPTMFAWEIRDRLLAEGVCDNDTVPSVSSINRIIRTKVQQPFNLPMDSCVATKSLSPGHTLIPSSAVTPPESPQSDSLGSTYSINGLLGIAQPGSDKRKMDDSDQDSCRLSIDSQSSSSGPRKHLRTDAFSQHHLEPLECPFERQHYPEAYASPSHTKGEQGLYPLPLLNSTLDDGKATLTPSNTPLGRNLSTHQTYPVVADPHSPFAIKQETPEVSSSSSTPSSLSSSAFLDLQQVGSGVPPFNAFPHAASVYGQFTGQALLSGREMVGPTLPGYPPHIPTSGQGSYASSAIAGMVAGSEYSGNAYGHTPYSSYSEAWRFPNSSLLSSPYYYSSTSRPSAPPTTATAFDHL
Sphingosine 1-phosphate receptor 2, sequence (O95136 whole entry): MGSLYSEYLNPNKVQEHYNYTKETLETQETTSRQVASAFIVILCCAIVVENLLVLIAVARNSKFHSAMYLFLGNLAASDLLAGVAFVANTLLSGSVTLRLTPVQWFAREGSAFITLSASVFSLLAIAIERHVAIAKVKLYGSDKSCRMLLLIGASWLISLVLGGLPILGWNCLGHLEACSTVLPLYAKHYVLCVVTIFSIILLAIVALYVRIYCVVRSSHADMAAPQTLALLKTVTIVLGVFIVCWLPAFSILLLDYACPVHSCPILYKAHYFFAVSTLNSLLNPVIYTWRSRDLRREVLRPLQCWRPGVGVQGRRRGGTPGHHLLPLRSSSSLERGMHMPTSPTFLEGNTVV
Genome polyprotein, sequence (P29990 2492-3391 limits assumed): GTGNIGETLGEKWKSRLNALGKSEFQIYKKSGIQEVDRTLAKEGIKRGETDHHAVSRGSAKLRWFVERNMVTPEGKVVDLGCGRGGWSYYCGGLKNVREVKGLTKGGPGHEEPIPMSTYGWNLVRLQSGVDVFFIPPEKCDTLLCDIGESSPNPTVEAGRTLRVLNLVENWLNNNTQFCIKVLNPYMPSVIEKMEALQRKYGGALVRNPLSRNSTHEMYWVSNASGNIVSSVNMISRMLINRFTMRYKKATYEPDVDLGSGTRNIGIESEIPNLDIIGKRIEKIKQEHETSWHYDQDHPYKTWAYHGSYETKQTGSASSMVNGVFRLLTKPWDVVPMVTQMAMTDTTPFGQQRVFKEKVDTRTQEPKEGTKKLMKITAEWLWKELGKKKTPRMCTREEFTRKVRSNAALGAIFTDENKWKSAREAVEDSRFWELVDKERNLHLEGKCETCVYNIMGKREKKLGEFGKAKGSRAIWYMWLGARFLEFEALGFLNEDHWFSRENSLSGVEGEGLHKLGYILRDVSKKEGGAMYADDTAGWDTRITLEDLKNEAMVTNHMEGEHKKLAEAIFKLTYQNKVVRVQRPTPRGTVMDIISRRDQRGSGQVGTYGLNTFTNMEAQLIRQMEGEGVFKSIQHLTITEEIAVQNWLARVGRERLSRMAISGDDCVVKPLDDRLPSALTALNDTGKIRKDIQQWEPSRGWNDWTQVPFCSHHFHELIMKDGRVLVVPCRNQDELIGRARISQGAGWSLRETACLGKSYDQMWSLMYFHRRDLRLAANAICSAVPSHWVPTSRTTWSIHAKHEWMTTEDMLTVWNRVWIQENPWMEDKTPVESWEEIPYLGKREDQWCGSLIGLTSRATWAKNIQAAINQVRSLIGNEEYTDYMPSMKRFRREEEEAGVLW
14-3-3 protein gamma, sequence (P61981 whole entry): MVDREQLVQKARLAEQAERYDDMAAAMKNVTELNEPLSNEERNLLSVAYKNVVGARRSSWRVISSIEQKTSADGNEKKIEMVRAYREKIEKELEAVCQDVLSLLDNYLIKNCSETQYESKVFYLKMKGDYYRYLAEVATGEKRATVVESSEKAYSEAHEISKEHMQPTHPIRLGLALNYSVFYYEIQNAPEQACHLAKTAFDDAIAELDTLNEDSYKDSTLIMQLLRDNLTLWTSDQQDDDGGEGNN
Protein Tat, sequence (P04608 whole entry): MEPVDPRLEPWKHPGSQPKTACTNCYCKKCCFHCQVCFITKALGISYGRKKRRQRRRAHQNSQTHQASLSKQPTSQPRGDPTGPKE

O=C(CSc1nc2cccc(F)c2c(=O)n1-c1ccccc1)Nc1ccc2c(c1)CCC2
active: CC50 [1] > 200 µM

C[C@H](O)C#Cc1ccc2c(c1)O[C@@H](CN(C)Cc1ccc(-c3ccccc3)cc1)[C@@H](C)CN([C@@H](C)CO)S2(=O)=O
inactive: AC50 [4] > 70 µM | AC50 [6] > 60 µM
active: AC50 [2] 22.6 µM | AC50 [3] 14.7 µM | AC50 [5] < 0.195 µM | AC50 [7] 11.2 µM | AC50 [8] 11.5 µM

COc1ccc(C2CC(c3cccs3)=NN2C(=O)CSc2nnc(N)s2)cc1OC (stereo not given)
inactive: IC50 [9] > 83.3 µM | IC50 [10] > 109 µM

CCOc1ccc(-n2c(Cc3cc(O)nc(O)n3)nnc2SCC(=O)NC2CCCC2)cc1
active: IC50 [11] > 100 µM

Cn1nc(C(F)(F)F)c(C#N)c1N1CCN(c2ccc(F)cc2)CC1
active: CC50 [12] > 40 µM | CC50 [13] 8.85 µM

COc1ccccc1CN1C[C@@H](C)[C@H](OC)CN(C)C(=O)c2ccc(NC(=O)Nc3ccccc3OC)cc2OC[C@H]1C
inactive: AC50 [16] > 100 µM
active: AC50 [14] 0.0185 µM | AC50 [15] 2.1 µM | AC50 [17] 0.189 µM | AC50 [18] < 0.3 µM | AC50 [19] 0.116 µM | AC50 [20] 0.163 µM

O=C(Cn1cc2c(n1)CCCC2)NCc1ccccn1
active: IC50 [21] 25.6 µM

COCCNC(=O)CN1CCN(C(c2ccccc2)c2ccccc2)CC1
> 50 µM (not active): EC50 [22]

CCOc1c(Cl)cc(CNc2ccc(N3CCCC3)cc2)cc1OC
> 60 µM (not active): EC50 [27]
active: IC50 [23] 2.69 µM | IC50 [24] 3.93 µM | IC50 [25] 93.2 µM | IC50 [26] 37.7 µM | CC50 [28] 27.8 µM | EC50 [29] 4.98 µM | CC50 [30] 100 µM

Cc1cc2c(C(C)C)c(O)c(O)c(C=O)c2c(O)c1-c1c(C)cc2c(C(C)C)c(O)c(O)c(C=O)c2c1O [GOSSYPOL]
inconclusive: AC50 [31] 15.8 µM and 39.8 µM | AC50 [38] 31.6 µM and 15.8 µM
active: IC50 [23] 1.52 µM | IC50 [35] 0.834 µM | IC50 [37] 0.354 µM | IC50 [39] 1.42 µM | IC50 [40] 1.38 µM | IC50 [41] 0.784 µM | IC50 [43] 0.916 µM | IC50 [44] 0.956 µM
inactive: IC50 [32] > 10 µM | IC50 [33] > 40 µM | IC50 [34] 23.4 µM | IC50 [36] > 10 µM | IC50 [42] > 64 µM
